The structures appear in SMILES notation.

For this test, the target named is T1, Recombinant human H-PGDS (Homo sapiens, UniProt O60760).
T1 construct: made in house; host or cells: E. coli
T1 sequence (O60760 whole entry): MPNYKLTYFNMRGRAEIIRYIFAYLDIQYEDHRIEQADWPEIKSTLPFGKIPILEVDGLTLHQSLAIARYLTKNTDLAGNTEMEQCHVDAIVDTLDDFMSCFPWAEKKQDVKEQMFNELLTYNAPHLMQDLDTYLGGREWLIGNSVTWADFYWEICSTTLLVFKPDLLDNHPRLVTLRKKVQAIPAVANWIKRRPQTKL
The test is described as follows: H-PGDS inhibitory activity (prostaglandin D2 production measured by LC-MS/MS). The class given is biochemical. The conditions noted are these: recombinant human H-PGDS 1.0 nM expressed in E. coli; prostaglandin H2 25 μM; 15 min preincubation and 1 min reaction on ice. How it is done:
The H-PGDS inhibitory activity of each Example compound was measured according to the method described in WO 2007/041634.
Recombinant human H-PGDS (final concentration: 1.0 nM) expressed in E. coli was mixed in an assay buffer containing 20 mM Tris-HCl (pH 8.0), 2 mM magnesium chloride, 2 mM reduced glutathione, and 0.5 mg/mL γ-globulin, and 150 μL of the mixture was dispensed into an 8-strip PCR tube (BM Equipment Co., Ltd). Test compounds (Example compounds) (16.5 μL) at various concentrations dissolved in DMSO were added and the mixture was preincubated for 15 minutes on ice.
Prostaglandin H2 (final concentration: 25 μM) (Cayman Chemical) was dispensed into another 8-strip PCR tube, and the solvent was dried and solidified using a vacuum concentrator (Thermo Fisher Scientific). To the dried and solidified prostaglandin H2 was added 50 μL of the assay buffer containing H-PGDS and each test compound after the preincubation, and the mixture was reacted on ice for 1 minute. 40 μL of this mixture was added to 40 μL of a stop solution (50 mM aqueous citric acid solution containing iron chloride at a final concentration of 4 mg/mL) to stop the reaction. Then, the reaction solution was deproteinized, added to a 96 square deep well plate (SHONANMARUHACHI STEC Co., Ltd.), and the prostaglandin D2 concentration in the reaction solution was measured by LC-MS/MS. ACQUITY (registered trademark) TQD (Waters) was used as a measuring instrument.
Prostaglandin D2 production activity (%) in the group with each test compound when a value obtained by subtracting the amount of production of prostaglandin D2 in the group without enzyme, which is non-specific production of prostaglandin D2, from the amount of production of prostaglandin D2 in the group without test compound (DMSO-addition group) in each 8-strip PCR tube is 100% was calculated. From the calculated activity value, the test compound concentration that inhibits prostaglandin D2 production by 50% (IC50) was determined.
Consider `Cc1cnc(-c2ccc(C(=O)NC34CCC(O)(CC3)CC4)cc2)c2cc[nH]c12` [Example 1, N-(4-hydroxybicyclo[2.2.2]octan-1-yl)-4-(7-methyl-1H-pyrrolo[3,2-c]pyridin-4-yl)benzamide], for which the IC50 (usually the concentration that inhibits the measured activity by half) worked out at 0.99 nM.
For `Cc1cnc(-c2ccc(C(=O)N[C@H]3CC[C@](C)(O)CC3)cc2)c2cc[nH]c12` [Example 2, N-(trans-4-hydroxy-4-methylcyclohexyl)-4-(7-methyl-1H-pyrrolo[3,2-c]pyridin-4-yl)benzamide] the value was 1.3 nM.
To `Cc1cnc(-c2ccc(C(=O)N[C@H]3CC[C@H](C4(O)CC4)CC3)cc2)c2cc[nH]c12` [Example 3, N-[trans-4-(1-hydroxycyclopropyl)cyclohexyl]-4-(7-methyl-1H-pyrrolo[3,2-c]pyridin-4-yl)benzamide] belongs 1.9 nM; to `Cc1cnc(-c2ccc(C(=O)N[C@H]3CC[C@H](OCC(C)(C)O)CC3)cc2)c2cc[nH]c12` [Example 4, N-[trans-4-(2-hydroxy-2-methylpropoxy)cyclohexyl]-4-(7-methyl-1H-pyrrolo[3,2-c]pyridin-4-yl)benzamide], 1.5 nM; to `C[C@]1(O)CC[C@H](NC(=O)c2ccc(-c3nccc4[nH]ccc34)c(F)c2)CC1` [Example 5, 3-fluoro-N-(trans-4-hydroxy-4-methylcyclohexyl)-4-(1H-pyrrolo[3,2-c]pyridin-4-yl)benzamide], 1 nM.
For `O=C(NC12CCC(O)(CC1)CC2)c1ccc(-c2nccc3[nH]ccc23)c(F)c1` [Example 6, 3-fluoro-N-(4-hydroxybicyclo[2.2.2]octan-1-yl)-4-(1H-pyrrolo[3,2-c]pyridin-4-yl)benzamide] the value was 1.1 nM; for `N#CC12CCC(NC(=O)c3ccc(-c4nccc5[nH]ccc45)c(F)c3)(CC1)CC2` [Example 7, N-(4-cyanobicyclo[2.2.2]octan-1-yl)-3-fluoro-4-(1H-pyrrolo[3,2-c]pyridin-4-yl)benzamide], 1.3 nM; for `NC(=O)C12CCC(NC(=O)c3ccc(-c4nccc5[nH]ccc45)c(F)c3)(CC1)CC2` [Example 8, 4-[3-fluoro-4-(1H-pyrrolo[3,2-c]pyridin-4-yl)benzamide]bicyclo[2.2.2]octane-1-carboxamide], 0.75 nM.
On to `CC(C)(O)CO[C@H]1CC[C@H](NC(=O)c2ccc(-c3nccc4[nH]ccc34)c(F)c2)CC1` [Example 9, 3-fluoro-N-[trans-4-(2-hydroxy-2-methylpropoxy)cyclohexyl]-4-(1H-pyrrolo[3,2-c]pyridin-4-yl)benzamide], for which the IC50 worked out at 1.2 nM.
`O=C(NC12CCC(O)(CC1)C2)c1ccc(-c2nccc3[nH]ccc23)c(F)c1` [Example 10, 3-fluoro-N-(4-hydroxybicyclo[2.2.1]heptan-1-yl)-4-(1H-pyrrolo[3,2-c]pyridin-4-yl)benzamide]: the IC50 was determined as 1 nM.
For `O=C(N[C@H]1CC[C@H](C2(O)CC2)CC1)c1ccc(-c2nccc3[nH]ccc23)c(F)c1` [Example 11, 3-fluoro-N-[trans-4-(1-hydroxycyclopropyl)cyclohexyl]-4-(1H-pyrrolo[3,2-c]pyridin-4-yl)benzamide] the value was 3.9 nM; for `O=C(N[C@H]1CC[C@H](O)CC1)c1ccc(-c2nccc3[nH]ccc23)c(F)c1` [Example 12, 3-fluoro-N-(trans-4-hydroxycyclohexyl)-4-(1H-pyrrolo[3,2-c]pyridin-4-yl)benzamide], 0.88 nM.
To `CC(C)(O)[C@H]1CC[C@H](NC(=O)c2ccc(-c3ncc(F)c4[nH]ccc34)cc2)CC1` [Example 13, 4-(7-fluoro-1H-pyrrolo[3,2-c]pyridin-4-yl)-N-[trans-4-(2-hydroxypropan-2-yl)cyclohexyl]benzamide] belongs 1.4 nM; to `CC(C)(O)[C@H]1CC[C@H](NC(=O)c2ccc(-c3ncc(Cl)c4[nH]ccc34)cc2)CC1` [Example 14, 4-(7-chloro-1H-pyrrolo[3,2-c]pyridin-4-yl)-N-[trans-4-(2-hydroxypropan-2-yl)cyclohexyl]benzamide], 1.2 nM; to `CC(C)(O)[C@H]1CC[C@H](NC(=O)c2ccc(-c3ncc(C#N)c4[nH]ccc34)cc2)CC1` [Example 15, 4-(7-cyano-1H-pyrrolo[3,2-c]pyridin-4-yl)-N-[trans-4-(2-hydroxypropan-2-yl)cyclohexyl]benzamide], 3.4 nM.
To `O=C(NC12CCC(O)(CC1)CC2)c1ccc(-c2ncc(F)c3[nH]ccc23)cc1` [Example 16, 4-(7-fluoro-1H-pyrrolo[3,2-c]pyridin-4-yl)-N-(4-hydroxybicyclo[2.2.2]octan-1-yl)benzamide] belongs 0.99 nM; to `O=C(NC12CCC(O)(CC1)CC2)c1ccc(-c2ncc(Cl)c3[nH]ccc23)cc1` [Example 17, 4-(7-chloro-1H-pyrrolo[3,2-c]pyridin-4-yl)-N-(4-hydroxybicyclo[2.2.2]octan-1-yl)benzamide], 0.69 nM; to `CC(C)(O)[C@H]1CC[C@H](NC(=O)c2ccc(-c3ncc(C(F)F)c4[nH]ccc34)cc2)CC1` [Example 18, 4-[7-(difluoromethyl)-1H-pyrrolo[3,2-c]pyridin-4-yl]-N-[trans-4-(2-hydroxypropan-2-yl)cyclohexyl]benzamide], 2.8 nM.
Take `O=C(NC12CCC(O)(CC1)C2)c1ccc(-c2ncc(F)c3[nH]ccc23)cc1` [Example 19, 4-(7-fluoro-1H-pyrrolo[3,2-c]pyridin-4-yl)-N-(4-hydroxybicyclo[2.2.1]heptan-1-yl)benzamide]: the IC50 stood at 1.4 nM.
For `O=C(N[C@H]1CC[C@H](O)CC1)c1ccc(-c2ncc(F)c3[nH]ccc23)cc1` [Example 20, 4-(7-fluoro-1H-pyrrolo[3,2-c]pyridin-4-yl)-N-(trans-4-hydroxycyclohexyl)benzamide] the value was 0.94 nM; for `C[C@]1(O)CC[C@H](NC(=O)c2ccc(-c3ncc(F)c4[nH]ccc34)cc2)CC1` [Example 21, 4-(7-fluoro-1H-pyrrolo[3,2-c]pyridin-4-yl)-N-(trans-4-hydroxy-4-methylcyclohexyl)benzamide], 1.7 nM; for `CC(C)(O)CO[C@H]1CC[C@H](NC(=O)c2ccc(-c3ncc(F)c4[nH]ccc34)cc2)CC1` [Example 22, 4-(7-fluoro-1H-pyrrolo[3,2-c]pyridin-4-yl)-N-[trans-4-(2-hydroxy-2-methylpropoxy)cyclohexyl]benzamide], 2.1 nM.
To `O=C(N[C@H]1CC[C@@H](O)CC1)c1ccc(-c2ncc(F)c3[nH]ccc23)cc1` [Example 23, 4-(7-fluoro-1H-pyrrolo[3,2-c]pyridin-4-yl)-N-(cis-4-hydroxycyclohexyl)benzamide] belongs 0.79 nM; to `O=C(NC1CCOCC1)c1ccc(-c2ncc(F)c3[nH]ccc23)cc1` [Example 24, 4-(7-fluoro-1H-pyrrolo[3,2-c]pyridin-4-yl)-N-(tetrahydropyran-4-yl)benzamide], 0.86 nM.
For `O=C(NC1CCS(=O)(=O)CC1)c1ccc(-c2ncc(F)c3[nH]ccc23)cc1` [Example 25, N-(1,1-dioxotetrahydrothiopyran-4-yl)-4-(7-fluoro-1H-pyrrolo[3,2-c]pyridin-4-yl)benzamide] the value was 0.7 nM; for `N#C[C@H]1CC[C@H](NC(=O)c2ccc(-c3ncc(F)c4[nH]ccc34)cc2)CC1` [Example 26, N-(trans-4-cyanocyclohexyl)-4-(7-fluoro-1H-pyrrolo[3,2-c]pyridin-4-yl)benzamide], 1.3 nM.
On to `NC(=O)[C@H]1CC[C@H](NC(=O)c2ccc(-c3ncc(F)c4[nH]ccc34)cc2)CC1` [Example 27, N-(trans-4-carbamoylcyclohexyl)-4-(7-fluoro-1H-pyrrolo[3,2-c]pyridin-4-yl)benzamide], for which the IC50 was found to be 2.3 nM.
For `O=C(NC1CCOCC1)c1ccc(-c2ncc(Cl)c3[nH]ccc23)cc1` [Example 28, 4-(7-chloro-1H-pyrrolo[3,2-c]pyridin-4-yl)-N-(tetrahydropyran-4-yl)benzamide] the value was 1.7 nM; for `O=C(NC1CCS(=O)(=O)CC1)c1ccc(-c2ncc(Cl)c3[nH]ccc23)cc1` [Example 29, 4-(7-chloro-1H-pyrrolo[3,2-c]pyridin-4-yl)-N-(1,1-dioxotetrahydrothiopyran-4-yl)benzamide], 0.85 nM; for `O=C(N[C@H]1CC[C@H](O)CC1)c1ccc(-c2ncc(Cl)c3[nH]ccc23)cc1` [Example 30, 4-(7-chloro-1H-pyrrolo[3,2-c]pyridin-4-yl)-N-(trans-4-hydroxycyclohexyl)benzamide], 0.68 nM.
To `C[C@]1(O)CC[C@@H](NC(=O)c2ccc(-c3ncc(Cl)c4[nH]ccc34)cc2)CC1` [Example 31, 4-(7-chloro-1H-pyrrolo[3,2-c]pyridin-4-yl)-N-(cis-4-hydroxy-4-methylcyclohexyl)benzamide] belongs 1 nM.

The record behind these values is US20250074906A1, “AZAINDOLE DERIVATIVE THAT INHIBITS H-PGDS” (SATO PHARMACEUTICAL CO., LTD., priority 2021, published 2025).
